According to paper PMC2846521 (Journal of chemical information and modeling, 2009):

Assays:
Gβ1γ2 [1] = molecular target: T1, Gβ1γ2 (Homo sapiens, UniProt P62873); experiment: Competition ELISA with the high-affinity SIGK peptide; settings: read-out: Median Inhibitory Concentration IC50 (binding inhibitors of SIGK); competition with SIGK peptide in ELISA
phospholipase C = settings: cited from earlier work
[2] = test system: phosphoinositide 3-kinase γ (PI3K); settings: cited from earlier work
Gβ1γ2 [3] = molecular target: T1, Gβ1γ2; settings: surface plasmon resonance; cited from earlier work
PI3K = settings: cited from earlier work
neutrophil = settings: cited from earlier work
[4] = mice; cited from earlier work

| Compound | IC50 (Gβ1γ2 [1]) [µM] | other results |
| --- | --- | --- |
| Cc1cc(O)c(-c2cc(O)c(C)cc2O)cc1O [compound 2805] | 7.1 | – |
| C[N+]1(CC[N+]2(C)CCCC2c2cccnc2)CCCC1c1cccnc1 (centres unmarked) [compound 3284] | 262 | – |
| O=C1c2ccccc2C(=O)c2c1ccc(C(=O)O)c2-c1ccc2ccccc2c1 [compound 9608] | 16.5 | – |
| Cc1ccc(S(=O)(=O)OC2C(C3COC(C)(C)O3)OC3OC(C)(C)OC32)cc1 (centres unmarked) [compound 14163] | 5.9 | – |
| CN(C)CS/C(N)=N/[C@H](O)C(Cl)(Cl)Cl [compound 14555] | 26 | – |
| C[N+]1(CCN[N+]2(C)CCCCC2)CCc2ccccc2C1 (centres unmarked) [compound 17770] | 59.1 | – |
| CCC(=O)OCN1C(=O)C=CC1=O [compound 19630] | 53.6 | – |
| O=C(O)[C@@H]1[C@H](C(=O)O)[C@]2(Cl)C(Cl)=C(Cl)[C@@]1(Cl)C2(Cl)Cl [compound 22225] | 11.4 | – |
| O=C1c2ccccc2C(=O)c2c(Nc3cc4c5c(ccc6c7ccc8c9c(cc(Nc%10cccc%11c%10C(=O)c%10ccccc%10C%11=O)c(c3c56)c97)-c3ccccc3C8=O)C(=O)c3ccccc3-4)cccc21 [compound 23128] | 27 | – |
| CN(CCc1ccccn1)c1ccc2c(c1)C(=O)c1ccccc1-2 [compound 24048] | 292 | – |
| Nc1ccc(S(=O)(=O)c2ccc(NCN3C(=O)NC(=O)C(=O)C3=O)cc2)cc1 [compound 34238] | 42 | – |
| CN1C[C@H](c2ccccc2)C(O)([C@]2(c3ccccc3)CN(C)C[C@@H](c3ccccc3)C2=O)[C@H](c2ccccc2)C1 (some centres unmarked) [compound 39207] | 10.7 | – |
| CC[N+](C)(CC)CCN1C(=O)c2ccccc2S1(=O)=O [compound 45126] | 69.7 | – |
| O=C1C(Cl)=C(Nc2ccc(S(=O)(=O)Nc3ccccn3)cc2)C(=O)c2ccccc21 [compound 45382] | 35.4 | – |
| O=C1c2cc([N+](=O)[O-])ccc2-c2ccc3c4ccc5c6c(ccc(c7ccc1c2c73)c64)C(=O)c1cc([N+](=O)[O-])ccc1-5 [compound 51535] | 2.4 | – |
| COc1ccc(CC[N@+]2(C)COc3cc4oc(=O)cc(C)c4cc3C2)cc1OC [compound 59275] | 197 | – |
| CN(C)C1C(=O)C(C(N)=O)=C(O)C2(O)C(=O)C3=C(O)c4c(O)cccc4C(C)(O)C3CC12 (centres unmarked) [compound 69343] | 16.8 | – |

| Compound | IC50 (Gβ1γ2 [1]) [µM] | other results |
| --- | --- | --- |
| Nc1cc(S(N)(=O)=O)ccc1SSc1ccc(S(N)(=O)=O)cc1N [compound 83217] | 56.9 | – |
| NCCNC(=S)S [compound 83224] | 24.9 | – |
| C[C@]12CC[C@H]3[C@@H](CCC4=CC(=O)CC[C@@]43C)[C@@H]1CC[C@@H]2C(=O)COS(=O)(=O)c1ccc(Br)cc1 [compound 88915] | 47.7 | – |
| C[N+]1(CCC[N+]2(C)C[C@H]3[C@H](C2)[C@H]2C=C[C@@H]3CC2)CCOCC1 (some centres unmarked) [compound 90831] | 92.9 | – |
| C[C@H]1CCCC2(CC[N+](C)(CCC[N+](C)(C)C)CC2)C1 (some centres unmarked) [compound 95676] | 182 | – |
| Nc1c(S(=O)(=O)O)cc(Nc2cccc(S(N)(=O)=O)c2)c2c1C(=O)c1ccccc1C2=O [compound 117079] | 56 | – |
| N=C1C(O)C2(I)c3ccccc3N3C(=N)C(O)C4c5ccccc5N1C4C32 (centres unmarked) [compound 118176] | 8.1 | – |
| O=C(O)c1c(Br)c(Br)c(Br)c(Br)c1C1c2ccc(O)cc2Oc2cc(O)ccc21 [compound 119889] | 4.3 | – |
| O=C(O)C1CCCCC1c1c2ccc(=O)c(O)c-2oc2c(O)c(O)ccc12 (centres unmarked) [compound 119910] | 0.2 | Gβγ-dependent activation of phospholipase C (phospholipase C): inhibit; Gβγ-dependent activation of phosphoinositide 3-kinase γ (PI3K) [2]: inhibit |
| O=C(O)/C=C/c1c2ccc(=O)c(O)c-2oc2c(O)c(O)ccc12 [compound 119911] | 0.2 | – |
| CC1C2C=CC1C(c1c3ccc(=O)c(O)c-3oc3c(O)c(O)ccc13)C2C(=O)O (centres unmarked) [compound 119913] | 0.7 | – |
| N=C(N)SCCN1CCCCC1 [compound 121771] | 198 | – |
| Nc1ccc(-c2ccc(Nc3cc(S(=O)(=O)O)c(N)c4c3C(=O)c3ccccc3C4=O)cc2)c(S(=O)(=O)O)c1 [compound 125910] | 18 | – |
| O=C1c2ccccc2C(=O)c2c(NC3CCCCC3)ccc(Nc3ccc(S(=O)(=O)O)cc3)c21 [compound 128437] | 24 | – |
| O=C(c1ccc([N+](=O)[O-])cc1)C(Br)C(Br)c1ccnc2ccccc12 (centres unmarked) [compound 150289] | 42.5 | – |
| O=C1OC2(c3ccccc31)c1ccc(O)c(O)c1Oc1c2ccc(O)c1O [gallein] | – | Kd (Gβ1γ2 [3]): ~0.4 µM; PI3K activation (PI3K): inhibit; chemoattractant-dependent neutrophil migration (neutrophil): inhibit; carrageenan-induced inflammation [4]: lessen |
